ChEMBL document CHEMBL1144926, “Structure-activity relationships of dynorphin a analogues modified in the address sequence” (J Med Chem, 2003)
Non-standard residues stand in square brackets, D forms with d. Residues, ends and D or L forms follow the SMILES beside them. Nle = CCCC[C@H](N)C(=O)O

Assays:
[1] = biological target: T1, Kappa-type opioid receptor (Homo sapiens, UniProt P41145); assay: biochemical; format: cell-based, CHO
Mu-type opioid receptor = Mu-type opioid receptor (Homo sapiens, UniProt P35372); assay: biochemical; format: cell-based, CHO
[2] = biological target: Delta-type opioid receptor (Homo sapiens, UniProt P41143); assay: In vitro binding affinity to human Opioid receptor delta 1 on CHO cell membranes using [3H]diprenorphine displacement.
[3] = biological target: T1, Kappa-type opioid receptor; assay: Antagonistic activity in the Opioid receptor kappa 1 -mediated [35S]GTP-gamma-S, binding assay against 50 nM U-50,488; format: functional
[4] = biological target: Mu-type opioid receptor (Cavia porcellus) (UniProt P97266); conditions: Ileum
[5] = biological target: T2, Opioid receptors; mu/kappa/delta (Homo sapiens) (UniProt P41145+P41143+P35372); assay: Binding affinity towards human kappa,mu,delta receptors was calculated as the ratio; 1/620/1300; format: protein assay
[6] = biological target: T2, Opioid receptors; mu/kappa/delta (Homo sapiens); assay: Binding affinity towards human kappa,mu,delta receptors was calculated as the ratio; 1/560/1200; format: protein assay
[7] = biological target: T2, Opioid receptors; mu/kappa/delta (Homo sapiens); assay: Binding affinity towards human kappa,mu,delta receptors was calculated as the ratio; 1/3.4/2.3; format: protein assay
[8] = biological target: T1, Kappa-type opioid receptor; assay: Antagonistic activity in theOpioid receptor kappa 1 -mediated [35S]GTP-gamma-S, binding assay against 50 nM U-50,488; format: functional
[9] = biological target: T1, Kappa-type opioid receptor; format: functional
[10] = biological target: T2, Opioid receptors; mu/kappa/delta (Homo sapiens); assay: Binding affinity towards human kappa,mu,delta receptors was calculated as the ratio; 1/34/69; format: protein assay
[11] = biological target: T2, Opioid receptors; mu/kappa/delta (Homo sapiens); assay: Binding affinity towards human kappa,mu,delta receptors was calculated as the ratio; 1/360/360; format: protein assay
[12] = biological target: T1, Kappa-type opioid receptor; conditions: 10 uM

T2 sequence (P35372 whole entry, looked up): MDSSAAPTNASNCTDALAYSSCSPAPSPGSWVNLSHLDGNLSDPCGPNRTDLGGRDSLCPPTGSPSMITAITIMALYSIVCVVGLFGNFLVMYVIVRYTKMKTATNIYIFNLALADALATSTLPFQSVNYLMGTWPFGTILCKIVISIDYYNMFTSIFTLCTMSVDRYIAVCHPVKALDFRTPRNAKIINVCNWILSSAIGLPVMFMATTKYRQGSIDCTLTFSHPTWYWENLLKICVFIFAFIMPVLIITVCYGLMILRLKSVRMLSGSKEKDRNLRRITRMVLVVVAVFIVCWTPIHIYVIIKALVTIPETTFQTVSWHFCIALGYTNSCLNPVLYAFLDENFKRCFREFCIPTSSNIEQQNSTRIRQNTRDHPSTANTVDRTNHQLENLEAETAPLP
T2 sequence (P41143 whole entry, looked up): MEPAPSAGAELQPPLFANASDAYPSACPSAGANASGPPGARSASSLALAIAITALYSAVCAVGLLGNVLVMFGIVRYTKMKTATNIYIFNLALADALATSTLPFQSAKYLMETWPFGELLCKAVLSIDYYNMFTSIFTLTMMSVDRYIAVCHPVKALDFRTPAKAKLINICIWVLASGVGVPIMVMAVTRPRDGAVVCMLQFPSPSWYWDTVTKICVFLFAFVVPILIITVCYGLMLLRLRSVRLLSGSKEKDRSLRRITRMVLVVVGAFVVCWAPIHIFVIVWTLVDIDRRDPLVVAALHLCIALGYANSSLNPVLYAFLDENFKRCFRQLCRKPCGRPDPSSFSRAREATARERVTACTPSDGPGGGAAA
T2 sequence (P41145 whole entry, looked up): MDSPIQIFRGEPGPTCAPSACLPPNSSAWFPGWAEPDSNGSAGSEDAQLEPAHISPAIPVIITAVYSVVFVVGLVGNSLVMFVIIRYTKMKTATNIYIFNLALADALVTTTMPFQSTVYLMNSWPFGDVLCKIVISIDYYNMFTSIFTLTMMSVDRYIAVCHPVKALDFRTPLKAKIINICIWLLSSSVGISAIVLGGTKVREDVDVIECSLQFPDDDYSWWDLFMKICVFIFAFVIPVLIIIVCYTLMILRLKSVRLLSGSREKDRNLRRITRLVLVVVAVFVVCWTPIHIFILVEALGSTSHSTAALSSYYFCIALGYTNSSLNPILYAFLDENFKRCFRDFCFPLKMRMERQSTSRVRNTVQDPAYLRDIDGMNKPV
Mu-type opioid receptor, sequence (P35372 whole entry): as the sequence (P35372 whole entry, looked up) above
Delta-type opioid receptor, sequence (P41143 whole entry): as the sequence (P41143 whole entry, looked up) above
Mu-type opioid receptor (Cavia porcellus), sequence (P97266 whole entry): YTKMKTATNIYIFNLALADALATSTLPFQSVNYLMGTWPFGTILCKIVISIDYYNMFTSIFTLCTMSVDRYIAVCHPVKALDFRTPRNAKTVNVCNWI
T1 sequence (P41145 whole entry): as the sequence (P41145 whole entry, looked up) above

Compound	Ki [1] [nM]	Ki (Mu-type opioid receptor) [nM]	Ki [2] [nM]	further results
H-YGPFLRRI-NH2	79.4	16200	16200	–
CC(C)C[C@H](NC(=O)[C@H](Cc1ccccc1)NC(=O)[C@@H]1CCCN1C(=O)CNC(=O)[C@@H](N)Cc1ccc(O)cc1)C(=O)N[C@@H](CCCN=C(N)N)C(=O)N[C@@H](CCCN=C(N)N)C(=O)N[C@@H](CCCN=C(N)N)C(N)=O	6.61	3100	> 100000	IC50 [3]: 4000 nM
CC[C@H](C)[C@H](NC(=O)[C@H](CCCNC(=N)N)NC(=O)[C@H](CCCNC(=N)N)NC(=O)[C@H](CC(C)C)NC(=O)[C@H](Cc1ccccc1)NC(=O)CNC(=O)CNC(=O)[C@@H](N)Cc1ccc(O)cc1)C(=O)N[C@@H](CCCNC(=N)N)C(=O)N1CCC[C@H]1C(=O)N[C@@H](CCCCN)C(=O)N[C@@H](CC(C)C)C(=O)N[C@@H](CCCCN)C(=O)O	0.23	–	–	–
Oc1ccc2c3c1O[C@H]1c4[nH]c5c(c4C[C@@]4(O)[C@@H](C2)N(CC2CC2)CC[C@]314)C[C@@]1(O)[C@H]2Cc3ccc(O)c4c3[C@@]1(CCN2CC1CC1)[C@H]5O4	–	–	–	Ke [4]: 0.572 nM
CCCC[C@H](NC(=O)[C@H](CC(C)C)NC(=O)[C@H](Cc1ccccc1)NC(=O)[C@@H]1CCCN1C(=O)CNC(=O)[C@@H](N)Cc1ccc(O)cc1)C(=O)N[C@@H](CCCN=C(N)N)C(N)=O (H-YGPFL[Nle]R-NH2)	> 100000	> 100000	14100	–
H-YGPFLRR-NH2	60.3	12600	15100	–
CC[C@H](C)[C@H](NC(=O)[C@H](CCCN=C(N)N)NC(=O)[C@H](CCCN=C(N)N)NC(=O)[C@H](CC(C)C)NC(=O)[C@H](Cc1ccccc1)NC(=O)[C@@H]1CCCN1C(=O)CNC(=O)[C@@H](N)Cc1ccc(O)cc1)C(=O)N[C@@H](CCCN=C(N)N)C(=O)N1CCC[C@@H]1C(N)=O	–	–	–	Ki ratio [5]: kappa/mu/delta
H-YGGFLRRIR-OH	2.5	23.8	9.8	–
H-YGPFLRRIR-NH2	10.7	6030	13200	Ki ratio [6]: kappa/delta/mu
H-YGPFLR-NH2 [listing 1 of 2 here]	–	–	–	Ki ratio [7]: kappa/delta/mu
CC[C@H](C)[C@H](NC(=O)[C@H](CCCNC(=N)N)NC(=O)[C@H](CCCNC(=N)N)NC(=O)[C@H](CC(C)C)NC(=O)[C@H](Cc1ccccc1)NC(=O)[C@@H]1CCCN1C(=O)CNC(=O)[C@@H](N)Cc1ccc(O)cc1)C(=O)N[C@@H](CCCNC(=N)N)C(=O)N1CCC[C@H]1C(=O)N[C@@H](CCCCN)C(N)=O	2.4	5250	–	IC50 [8]: 440 nM
CC[C@H](C)[C@H](NC(=O)[C@H](CCCNC(=N)N)NC(=O)[C@H](CCCNC(=N)N)NC(=O)[C@H](CC(C)C)NC(=O)[C@H](Cc1ccccc1)NC(=O)[C@@H]1CCCN1C(=O)CNC(=O)[C@@H](N)Cc1ccc(O)cc1)C(=O)N[C@@H](CCCNC(=N)N)C(=O)N[C@@H](CCCNC(=N)N)C(N)=O	–	–	–	IC50 [9]: 1260 nM; Ki ([1]; cho): 3.39 nM; Ki (Mu-type opioid receptor; cho): 2340 nM; Ki ([2]; cho): 6030 nM
CC[C@H](C)[C@H](NC(=O)[C@H](CCCN=C(N)N)NC(=O)[C@H](CCCN=C(N)N)NC(=O)[C@H](CC(C)C)NC(=O)[C@H](Cc1ccccc1)NC(=O)CNC(=O)CNC(=O)[C@@H](N)Cc1ccc(O)cc1)C(=O)N[C@@H](CCCN=C(N)N)C(=O)N1CCC[C@@H]1C(=O)O	–	–	–	Ki ratio [10]: kappa/mu/delta
H-YGGFLR-OH	404	40.6	9.1	–
CC[C@H](C)[C@H](NC(=O)[C@H](CCCN=C(N)N)NC(=O)[C@H](CCCN=C(N)N)NC(=O)[C@H](CC(C)C)NC(=O)[C@H](Cc1ccccc1)NC(=O)[C@@H]1CCCN1C(=O)CNC(=O)[C@@H](N)Cc1ccc(O)cc1)C(=O)N[C@@H](CCCN=C(N)N)C(=O)N1CCC[C@@H]1C(=O)N[C@@H](CCCCN)C(N)=O	–	–	–	Ke [4]: 494 nM
CC(C)C[C@H](NC(=O)[C@H](Cc1ccccc1)NC(=O)CNC(=O)CNC(=O)[C@@H](N)Cc1ccc(O)cc1)C(=O)N[C@@H](CCCNC(=N)N)C(=O)N[C@@H](CCCNC(=N)N)C(=O)O	–	38	9.7	–
CC[C@H](C)[C@H](NC(=O)[C@H](CCCN=C(N)N)NC(=O)[C@H](CCCN=C(N)N)NC(=O)[C@H](CC(C)C)NC(=O)[C@H](Cc1ccccc1)NC(=O)[C@@H]1CCCN1C(=O)CNC(=O)[C@@H](N)Cc1ccc(O)cc1)C(=O)N[C@@H](CCCN=C(N)N)C(=O)N1CCC[C@@H]1C(=O)N[C@@H](CCCCN)C(=O)O	–	–	–	Ki ratio [11]: kappa/mu/delta
H-YGPFLR-NH2 [listing 2 of 2 here]	5600	19500	12600	–
CC[C@H](C)[C@H](NC(=O)[C@H](CCCNC(=N)N)NC(=O)[C@H](CCCNC(=N)N)NC(=O)[C@H](CC(C)C)NC(=O)[C@H](Cc1ccccc1)NC(=O)[C@@H]1CCCN1C(=O)CNC(=O)[C@@H](N)Cc1ccc(O)cc1)C(=O)N[C@@H](CCCNC(=N)N)C(=O)N1CCC[C@H]1C(=O)N[C@@H](CCCCN)C(=O)O	–	–	–	Ki ([1]; cho): 41.7 nM; Ki (Mu-type opioid receptor; cho): 15100 nM; Ki ([2]; cho): 15000 nM
CC[C@H](C)[C@H](NC(=O)[C@H](CCCN=C(N)N)NC(=O)[C@H](CCCN=C(N)N)NC(=O)[C@H](CC(C)C)NC(=O)[C@H](Cc1ccccc1)NC(=O)CNC(=O)CNC(=O)[C@@H](N)Cc1ccc(O)cc1)C(=O)O	–	35.4	–	–
H-YGPFL-NH2	> 10000	15500	18600	–
CC[C@H](C)[C@H](NC(=O)[C@H](CCCNC(=N)N)NC(=O)[C@H](CCCNC(=N)N)NC(=O)[C@H](CC(C)C)NC(=O)[C@H](Cc1ccccc1)NC(=O)[C@@H]1CCCN1C(=O)CNC(=O)[C@@H](N)Cc1ccc(O)cc1)C(=O)N[C@@H](CCCNC(=N)N)C(=O)N[C@@H](CCCNC(=N)N)C(=O)N[C@@H](CCCCN)C(N)=O	–	–	–	IC50 [9]: 410 nM; Ki ([1]; cho): 1.2 nM; Ki (Mu-type opioid receptor; cho): 1660 nM; Ki ([2]; cho): 3230 nM
CC[C@H](C)[C@H](NC(=O)[C@H](CCCN=C(N)N)NC(=O)[C@H](CCCN=C(N)N)NC(=O)[C@H](CC(C)C)NC(=O)[C@H](Cc1ccccc1)NC(=O)CNC(=O)CNC(=O)[C@@H](N)Cc1ccc(O)cc1)C(=O)N[C@@H](CCCN=C(N)N)C(=O)N1CCC[C@H]1C(=O)N[C@@H](CCCCN)C(N)=O	0.059	–	–	Max stimulation [12]: 73%
CC[C@H](C)[C@H](NC(=O)[C@H](CCCN=C(N)N)NC(=O)[C@H](CCCN=C(N)N)NC(=O)[C@H](CC(C)C)NC(=O)[C@H](Cc1ccccc1)NC(=O)[C@@H]1CCCN1C(=O)CNC(=O)[C@@H](N)Cc1ccc(O)cc1)C(=O)N[C@@H](CCCN=C(N)N)C(=O)N1CCC[C@H]1C(N)=O	–	–	–	Ki ([1]; cho): 10 nM; Ki (Mu-type opioid receptor; cho): 6200 nM; Ki ([2]; cho): 13500 nM
CC(C)C[C@H](NC(=O)[C@H](Cc1ccccc1)NC(=O)[C@@H]1CCCN1C(=O)CNC(=O)[C@@H](N)Cc1ccc(O)cc1)C(=O)N[C@@H](CCCN=C(N)N)C(=O)N[C@@H](CCCN=C(N)N)C(=O)N[C@@H](CCCN=C(N)N)C(=O)N[C@@H](CCCN=C(N)N)C(=O)N1CCC[C@@H]1C(=O)N[C@@H](CCCCN)C(N)=O	–	–	–	Ke [4]: 280 nM
CC[C@H](C)[C@H](NC(=O)[C@H](CCCNC(=N)N)NC(=O)[C@H](CCCNC(=N)N)NC(=O)[C@H](CC(C)C)NC(=O)[C@H](Cc1ccccc1)NC(=O)CNC(=O)CNC(=O)[C@@H](N)Cc1ccc(O)cc1)C(=O)N[C@@H](CCCNC(=N)N)C(=O)N1CCC[C@H]1C(=O)O	0.35	11.9	24	–
CC(C)C[C@H](NC(=O)[C@H](Cc1ccccc1)NC(=O)[C@@H]1CCCN1C(=O)CNC(=O)[C@@H](N)Cc1ccc(O)cc1)C(=O)N[C@@H](CCCNC(=N)N)C(=O)N[C@@H](CCCNC(=N)N)C(=O)N[C@@H](CCCNC(=N)N)C(=O)N[C@@H](CCCNC(=N)N)C(=O)N1CCC[C@H]1C(=O)N[C@@H](CCCCN)C(N)=O	–	–	–	IC50 [9]: 340 nM; Ki ([1]; cho): 0.44 nM; Ki (Mu-type opioid receptor; cho): 2750 nM; Ki ([2]; cho): 6760 nM
